In patent US20250100962A1 (CITY OF HOPE, priority 2023, published 2025):

What was measured:
[1] = test system: mdx mice; test: Maximal lethal dose by daily intraperitoneal injection in mdx mice; format: in vivo
Procedure: (§1) FIGS. 48A-48C. Systemic delivery of CM002 by intraperitoneal injection improves muscle strength in dystrophic mdx mice. Based on the PK analysis, we determined the maximal lethal dose in mdx mice via daily intraperitoneal injections using escalating doses. Starting doses were tested at 10, 20 and 30 mg/Kg/day, for 3 consecutive days in male or female mdx mice (FIG. 48A).

[2] = test system: mdx mice; format: in vivo; conditions: 10 mg/kg IP daily, 3 doses; vs non-treated or DMSO
Procedure: as §1

[3] = test system: cells; test: Cellular toxicity observed across cell assays; format: cell-based
[4] = test system: CLOCK/Bmal1-mediated transcription; test: Luciferase assay: 293A cells transfected with Bmal1 and CLOCK, Period2-driven luciferase reporter; format: cell-based; conditions: 0.2 μM for 6 hours, Per2-luciferase reporter
Procedure: Cells were seeded at 4×10^5 concentration on 24 well plates. The seeding density was decided after trying several densities and choosing the one that after 24 h lead to 90% confluence. At 90% confluence cell transfection was performed using Opti-MEMTM Reduced Serum Medium (Gibco-Thermo Fisher CN:31985062) with PGL2, PRL, pcDNA3.0-BMAL1-His, PcDNA3.0-6×Myc-CLOCK (AddGene CN: 47334) pcDNA3.0-3×FLAG-cry2 plasmids and PEI max 40 k (Polysciences Inc CN: 24765-1). After 24 h of transfection, cells were treated with desired compounds and controls in 10% FBS 1% PSG DMEM media for desired times. Cells were extracted with 1×PLB provided in the Dual-Luciferase® Reporter Assay Kit (Promega CN: E1910) and transferred to 96-well black plate to be treated with LARII and Stop & Glo components according to protocol of the Dual-Luciferase® Reporter Assay Kit (Promega CN: E1910). Luminescence was measured on microplate (ELISA) reader (TECAN infinite […]). The mean and standard deviation values were calculated for each well and graphed.

[5] = test system: C2C12 myoblasts; test: Wound healing assay of C2C12 myoblasts; format: cell-based, mouse; conditions: 8 and 24 hours; 0.2 to 1 μM; vs DMSO
Procedure: Cells were seeded at 12×10^5 concentration on 6 well plates until 90% coverage and treated with compounds as indicated and controls while maintained 10% FBS 1% PSG DMEM. Scratch wounds were made with disposable cells scrapers and pictures were taken at hours 0, 4, 8, 24 and 48 following scratch. The results were measured as percentage coverage over original wound area based on image quantification. Area of wound closure was measured using Image J software.

[6] = test system: 3T3-L1 preadipocytes containing Per2::dLuc luciferase reporter; test: Bioluminescence monitoring of Per2::dLuc reporter in 3T3-L1 preadipocytes; format: cell-based
Procedure: Generation of stable adipogenic progenitor cell lines containing Per2::dLuc. 3T3-L1 preadipocytes and the C3H10T1/2 mesenchymal stem cells obtained from ATCC were used for Per2:: dLuc lentiviral transduction and stable clone selection using puromycin, as described previously (Guo et al., 2012). Briefly, cells were transfected with lentiviral packaging plasmids (pSPAX.2 and pMD2.G) and lentivirus vectors Per2::dLuc using PEI Max (Polysciences). At 48 hours post-transfection, lentiviruses were collected. 3T3-L1 and C3H10T1/2 […] cells were infected using collected lentiviral media supplemented with polybrene. 24 hours following lentiviral infection, stable cell lines were selected in the presence of 2 μg/ml puromycin.
Continuous Bioluminescence monitoring of Per2:: dLuc luciferase reporter. 3T3-L1 and C3H10T1/2 cells containing a Per2::dLuc luciferase reporter were generated as described previously (Xiong et al., 2023). […] Raw and subtracted results of real-time bioluminescence recording data for 6 days were exported, and data was calculated as luminescence counts per second, as previously described (Xiong, Li, Nam et al., 2022). […] Briefly, raw data following the first cycle from day 2 to […] were fitted to a linear baseline, and the baseline-subtracted data (polynomial number=1) were fitted to a sine wave, from which period length and goodness of fit and damping constant were determined.

[7] = test system: 3T3-L1 preadipocytes; test: Clock and Wnt gene expression in 3T3-L1 cells; format: cell-based; conditions: RT-qPCR
Procedure: RNA extraction and RT-qPCR analysis. PureLink RNA Mini Kit (Invitrogen) were used to isolate total RNA from cells. cDNA was generated using Revert Aid RT kit (ThermoFisher) and quantitative PCR was performed using SYBR Green Master Mix (Thermno Fisher) in triplicates on ViiA 7 Real-Time PCR System (Applied Biosystems). Relative expression levels were determined using the comparative Ct method with normalization to 361B4 as internal control.

[8] = test system: 3T3-L1 preadipocytes; test: Adipogenic differentiation of 3T3-L1 preadipocytes; format: cell-based
Procedure: Cell culture and adipogenic differentiation. 3T3-L1 and C3H10T1/2 cell lines were obtained from ATCC, and maintained in DMEM with 10% fetal bovine serum supplemented with 1% Penicillin-Streptomycin-Glutamine, as previously described (Nam, Guo, Chatterjee et al., 2015; Liu, Xiong, Nam et al., 2020). 0.25% Trypsin was used for digestion and passaging of these cell lines. For adipogenic differentiation induction media (1.6 μM insulin, 1 μM dexamethasone, 0.5 mM IBMX, 0.5 uM Rosiglitazone) was used for 3 days followed by maintenance medium with insulin for 3 days for 3T3-L1 and 5 days for C3H10T1/2 cells, as previously described (Liu et al., 2020). Oil-red-O and Bodipy staining. These stainings for neutral lipids during adipogenic differentiation were performed as previously described (Nam et al., 2015). Briefly, for oil-red-O staining, cells were fixed using 10% formalin and incubated using 0.5% oil-red-O solution for 1 hour. Bodipy 493/503 was used at 1 mg/L together with DAPI for 15 minutes, following 4% paraformaldehyde fixation and permeabilization with 0.2% triton-X100. Immunoblot analysis. Total protein was extracted using lysis buffer containing 3% NaCl, 5% Tris-HCl, 10% Glycerol, 0.5% Triton X-10 in MilliQ water with protease inhibitor cocktail. 20-40 μg of total protein was resolved on 10% SDS-PAGE gels followed by immunoblotting on PVDF membranes (Bio-rad). […]

Row | SMILES | lethality at 20 mg/kg ([1]; IP injection) | lethality at 30 mg/kg ([1]; IP injection) | lethal dose ([1]; intraperitoneal, 3 consecutive days) | tolerability at 10 mg/kg ([1]; male mice of 10-14 weeks, IP) | increase of grip strength [2] | viability of cells at 1 μM [3] | induction of CLOCK/Bmal1-activated transcription [4] | wound area closure (migration) [5] | clock cycling amplitude [6] | clock period length [6] | core clock gene expression [7] | formation of lipid-laden mature adipocyte ([8]; day 6, oil-red-O, Bodipy) | C/EBPα and PPARγ levels ([8]; differentiation day 6)
1 | CCCCCC/C=N/C(=N)NC(=N)Nc1ccc(Cl)cc1 [CM002] | young adult mice at 14 weeks of age were succumbed to death, while older mice over 6 months of age survived | most mice injected at 30 mg/kg deceased | over 20 mg/kg/day | tolerated 10 mg/kg well without any lethality | ~16% | maintained |  |  |  |  |  |  | 
2 | [H]/N=C(\N/C(=N/[H])NCCCCCCNC(=N)NC(=N)Nc1ccc(Cl)cc1)Nc1ccc(Cl)cc1 [CHX, chlorhexidine] |  |  |  |  |  |  | ~26% | significantly increased | increasing amplitude | reducing period length | Largely similar effects on inducing core clock genes | sufficient to inhibit the formation of lipid-laden mature adipocyte in a dose-dependent manner | only moderate tendency of lowering of C/EBPα and PPARγ levels
